The values below are quoted from earlier work in US7612214B2, “Organic amine salts of glutamic acid derivatives and their application” (Ajinomoto Co., Inc., priority 2003, dated 2009).

SMILES strings stand for the structures. “And” between values parts separate entries of the source, which are not always exact repeats. Equal values may be shown once.

For this data set the following is noted: (2S,4S) isomer derived from the natural plant; literature report (Vleggaar et al.).

With `N[C@@H](C[C@@](O)(Cc1c[nH]c2ccccc12)C(=O)O)C(=O)O` [(2S,4S) isomer, (2S,4S)-2-amino-4-carboxy-4-hydroxy-5-(3-indolyl)pentanoic acid], the degree of sweetness is 800 times of sucrose and 1400 times of sucrose.
